Read-outs that look alike come from different tables or passages of the source.

One series in a line: in vivo. As to conditions: rat; for AUC(0-inf) / AUC(0-t) / Cmax / MRT inf / Tmax / half-life / k el: male, Sprague Dawley. An excerpt: It is known that the hydrophobic interior surface of the cell membrane (lipid bilayer) serves as a barrier to the passage of polar and high molecular weight molecules.
Food pellets and tap water were provided ad libitum throughout the experimentation. The protocol to carry out in vivo pharmacokinetics was approved by The Institutional Animal Ethics Committee (IAEC) of Crystal Biological Solution, Pune, Maharashtra, India. […] Eighteen animals were subdivided into three groups, (n = 6) animals in each group. Withania somnifera extract suspension was prepared in water for oral administration, and the dose was calculated based on the acute oral toxicity study (500 mg/kg; single dose). […] The separated plasma samples were transferred into Eppendorf tubes and stored at −80 °C in a deep freezer until analysis. Ten pharmacokinetic parameters were determined using PK solver 2.0, USA [45, 46, 47]. The maximum observed concentration (Cmax) and maximum observed time (Tmax) were calculated directly from the experimental results. The elimination rate constant (Kel) was calculated from the slope of the linear regression of Log concentrations as a function of time. […] The area under the curve (AUC(0–t)) was calculated from the linear curve following the trapezoidal rule, while AUC(0–∞) was calculated by adding Ct/λ, with Ct being the final measurable concentration. Oral clearance (Cl/F) was obtained from the equation Cl/F = dose/AUC(0–∞). Mean residence time (MRT) was calculated as AUMC(0–∞)/AUC(0–∞), where AUMC(0–∞) is the area under the first moment curve. […] The pharmacokinetic parameters as the average of six rats ± SD. The mean plasma concentration Vs. time curve (mean ± SD) was prepared using Prism 8.2, (GraphPad, San Diego, CA, USA).

Another series in a line: in vitro. As to conditions: rat.
Series [1] is described as follows: Stability of analytes in rat plasma. As to conditions: n = 6; for Processed sample stability (% ± SD): processed rat plasma sample, 4 h; for Bench top Stability (% ± SD): 25 °C for 4 h; for Freeze-thaw stability (% ± SD): three freeze/thaw cycles.
Protocol: Six replicates of quality control samples were analyzed at four concentration levels (LLOQ, LQC, MQC, and HQC; n = 6) on the same day (intra-day) and repeated for three consecutive days (inter-day) (Table S2). The precision was expressed as the relative standard deviation (% RSD), and accuracy was reported as the relative error (% RE). Later, these samples were analyzed for stability testing under the following conditions: three complete freeze/thaw cycles (−80 °C to 25 °C), long-term sample storage (−80 °C for 60 days), processed sample, and bench-top (25 °C for 4 h).
The next series relates to chromosomes. The procedure: After completing the study, chromosomal slides were observed under 100×, and the % aberrated chromosomes were calculated.
The conditions of series [2]: male rats, cited from earlier work.
For series [3] the following is noted: Balb/C mice, 4 mg/kg single intraperitoneal; cited from earlier work.
The conditions of series [4]: mice, oral Withania somnifera aqueous extract 1000 mg/kg; cited from earlier work.
The nature of series [5]: Ex vivo permeability study, everted rat intestine apparatus.
Description: (§1) The everted intestinal segment was mounted on the apparatus and setting it in the beaker. The internal surface of the glass tubes serves as the mucosal compartment, and the beaker serves as the serosal compartment. Animals were humanly sacrificed by cervical dislocation followed by a midline incision. The abdominal cavity was opened carefully, and the intestine was maneuvered to identify the ileocecal junction. A 7 cm long intestinal segment distant to the ileocecal junction (5–6 cm) was excised by carefully removing the mesenteric attachments without causing any damage to the intestinal architecture. The segment was cleaned using the Kreb’s Ringer Bicarbonate (KRB) buffer medium and was stored in KRB buffer in a petri dish. The cleaned segment was then everted gently using a glass rod. Finally, a 3 cm long intestinal segment was used to perform the permeability study [49, 50].
(§2) The tissue was mounted on the apparatus and was placed in a 1000 mL beaker containing 2 mg/mL WSE suspension. The intestinal segment was perfused from the mucosal end using the KRB buffer. The apparatus (beaker with tissue) was placed on the magnetic stirrer followed by continuous stirring using a magnetic bead at 25 rpm to mimic the peristaltic movement of the stomach at 37 °C with appropriate aeration. The sample collection at different time points was carried out every 5 min interval for 1 h. The collected samples were further diluted and analyzed using LC-MS/MS.
(§3) The sample was diluted to 20-fold in ACN and injected 2 µL into LC-MS/MS. Samples were stored at −20 °C until analysis using validated UHPLC-MS/MS. The permeability was obtained by plotting the cumulative amount transported (ng) across the gut sac against time (second).
(§4) The calculation of apparent permeability (Papp) was carried out using the following Equation (1):Papp = dQ/dt × 1/A × C0(1) where Papp: apparent permeability co-efficient; dQ/dt: the cumulative amount of drug (Q) appearing in the acceptor (serosal) compartment as a function of time and was obtained from the slope of the linear portion of the amount transported-versus-time plot. A: Surface area of the intestine (cm^2) (0.18 cm as radius) and C0: Initial concentration of drug in the donor compartment (ng/mL).
The mark [6] stands for this setting: high QC (nominal 200.50-201.50 ng/mL).
Where [7] appears, read: low QC (nominal 10.05-10.50 ng/mL).
Where [8] appears, read: rat plasma, high QC (nominal 200.50-201.50 ng/mL).
Setting [9] is: rat plasma, low QC (nominal 10.05-10.50 ng/mL).

Description for in vitro: as §1, §2, §3, §4

In general, AUC(0-inf) refers to total exposure, with the tail of the curve extrapolated. Low readings indicate low exposure, high ones high exposure. As a reminder, the AUC(0-t) is the area under the concentration-time curve up to a stated or last time point. Low values mean low exposure, high ones high exposure. The Cmax is the highest concentration seen after dosing. In general, MRT inf refers to a mean duration of stay, worked out from the concentration-time curve. Broadly, the Tmax is the time at which the peak concentration occurs. In general, half-life refers to how long it takes for the measured level to halve. Usually Papp stands for the rate of passage across a membrane or cell layer, normalised by area and donor concentration. Read a low Papp as poor permeation. Turning to `CC1=C(CO)C(=O)OC(C(C)C2CCC3C4C5OC5C5(O)CC=CC(=O)C5(C)C4CCC23C)C1` (stereo not drawn) [12-Deoxy-withastramonolide], in the series “in vivo” (in vivo, po, 500 mg/kg), the total exposure AUC(0-inf) stood at 92.3 ± 13.5 ng·h/mL, the AUC(0-t) came to 82.9 ± 7.82 ng·h/mL, the Cmax stood at 57.5 ± 7.52 ng/mL and the MRT inf is 140 ± 40 min. In the series “in vivo” (in vivo, po, 500 mg/kg), the time to peak (Tmax) came to 17.5 ± 6.12 min, the half-life was 104 ± 30.3 min, the k el is 0.000121 s⁻¹ and the “oral clearance (Cl/F)” value was 0.016 ± 0.002 (mg/kg)/(ng/mL)/h. Also, the apparent permeability coefficient (Papp) at 1 h, 2 mg/mL in “in vitro” worked out at 0.122 ×10⁻⁶ cm/s. Besides, in series [1] (setting [6]), the “Processed sample stability (% ± SD)” value worked out at 92.99 ± 8.83%. The “Processed sample stability (% ± SD)” value in series [1] (setting [7]) was 121.14 ± 59.07%. Also, in series [1] (setting [8]), the “Bench top Stability (% ± SD)” value was 95.97 ± 7.13%, the “Autosampler stability (% ± SD)” value is reported as 108.67 ± 1.94% and the “Freeze-thaw stability (% ± SD)” value worked out at 97.78 ± 4.28%. Further, in series [1] (setting [9]), the “Bench top Stability (% ± SD)” value turned out to be 97.92 ± 7.04%, the “Autosampler stability (% ± SD)” value is 101.72 ± 3.25% and the “Freeze-thaw stability (% ± SD)” value amounted to 101.34 ± 8.37%.

On to `O=P1(N(CCCl)CCCl)NCCCO1` (stereo not drawn) [Cyclophosphamide], for which, in the series with chromosomes, the “% Aberration” value is 52%, the MI mitotic index is reported as 52, the “RCG (%) relative cell growth” value came out at 112% and the “RMI (%) relative mitotic index” value was found to be 85%. Moreover, in the series on chromosomes, the “Ratio with Negative” value worked out at 10.40.

Broadly, the bioavailability is dose-corrected exposure relative to a reference, in per cent. In the series “in vivo” (plasma, po, 500 mg/kg), `CC1=C(CO)C(=O)O[C@@H]([C@@H](C)[C@H]2CC[C@H]3[C@@H]4C[C@H]5O[C@]56[C@@H](O)C=CC(=O)[C@]6(C)[C@H]4CC[C@]23C)C1` [Withaferin A] had an area under the curve AUC(0-inf) of 188 ± 20.5 ng·h/mL, an AUC(0-t) of 161 ± 18.9 ng·h/mL, a peak concentration (Cmax) of 124 ± 64.9 ng/mL and a mean residence time MRT inf of 231 ± 51.4 min. Moreover, in “in vivo” (plasma, po, 500 mg/kg), the time of peak concentration (Tmax) stood at 15 min, the half-life was 189 ± 36.7 min and the k el is 6.28e-05 s⁻¹. In addition, the “oral clearance (Cl/F)” value in the series “in vivo” (WSE 500 mg/kg oral single dose) was 0.026 ± 0.003 (mg/kg)/(ng/mL)/h. Also, the bioavailability in series [2] (withaferin A 10 mg/kg oral dose, 5 mg/kg I.V. dose) is 32.4 ± 4.8%. Moreover, in series [2] (withaferin A 10 mg/kg oral), the Cmax was 619 ± 125 ng/mL, the time to peak (Tmax) is 6.6 ± 4.2 min and the half-life was 456 ± 198 min. In series [3], the “AUC(0–t)” value was 1.09 µM·h, the Clearance from plasma is 0.151 L/h, the Cmax was 1800 nM and the Tmax is 4.98 min. Moreover, the plasma half-life in series [3] was 81.6 min. Further, in series [4], the time of peak concentration (Tmax) is listed as 20.00 min and the “plasma half-life (t1/2)” value is 59.92 ± 15.90 min. In addition, in series [1] (setting [6]), the “Processed sample stability (% ± SD)” value turned out to be 99.56 ± 5.11%. In addition, the “Processed sample stability (% ± SD)” value in series [1] (setting [7]) turned out to be 103.30 ± 8.41%. Besides, in series [1] (setting [8]), the “Bench top Stability (% ± SD)” value is recorded as 94.72 ± 6.57%, the “Autosampler stability (% ± SD)” value is listed as 108.40 ± 1.59% and the “Freeze-thaw stability (% ± SD)” value is 102.10 ± 5.76%. For the same compound, in series [1] (setting [9]), the “Bench top Stability (% ± SD)” value was 103.30 ± 8.41%, the “Autosampler stability (% ± SD)” value is reported as 103.09 ± 4.95% and the “Freeze-thaw stability (% ± SD)” value is reported as 103.41 ± 5.62%. Besides, in series [1] (rat plasma, −80 °C for 60 days, high QC (nominal 200.50-201.50 ng/mL), the values are: measured concentration), the Long-term stability (% ± SD) was found to be 204 ± 8.81 ng/mL. For the same compound, in series [5], the apparent permeability coefficient (Papp) at 1 h, 2 mg/mL is 0.113 ×10⁻⁶ cm/s.

`CC1=C(C)C(=O)O[C@@H]([C@](C)(O)[C@H]2CC[C@H]3[C@@H]4[C@@H]5O[C@@H]5[C@@]5(O)CC=CC(=O)[C@]5(C)[C@H]4CC[C@]23C)C1` [Withanolide A]: in the series “in vivo” (in vivo, po, 500 mg/kg), the area under the curve AUC(0-inf) is 7.53 ± 1.83 ng·h/mL, the AUC(0-t) worked out at 4.18 ± 1.03 ng·h/mL, the peak concentration (Cmax) worked out at 7.28 ± 3.34 ng/mL and the MRT inf worked out at 75 ± 34.3 min. In addition, in “in vivo” (in vivo, po, 500 mg/kg), the Tmax was determined as 20 ± 7.74 min, the half-life is 43.7 ± 25.4 min, the k el was 0.000391 s⁻¹ and the “oral clearance (Cl/F)” value was 0.356 ± 0.090 (mg/kg)/(ng/mL)/h. The apparent permeability coefficient (Papp) at 1 h, 2 mg/mL in “in vitro” is 0.0665 ×10⁻⁶ cm/s. Besides, the “plasma half-life (t1/2)” value in series [4] is listed as 45.22 ± 9.95 min. In addition, the “Processed sample stability (% ± SD)” value in series [1] (setting [6]) was found to be 99.36 ± 6.79%. The “Processed sample stability (% ± SD)” value in series [1] (setting [7]) is recorded as 128.43 ± 68.06%. Besides, in series [1] (setting [8]), the “Bench top Stability (% ± SD)” value is 103.63 ± 6.10%, the “Autosampler stability (% ± SD)” value is 105.04 ± 3.63% and the “Freeze-thaw stability (% ± SD)” value was found to be 98.89 ± 4.24%. Also, in series [1] (setting [9]), the “Bench top Stability (% ± SD)” value was 102.00 ± 7.99%, the “Autosampler stability (% ± SD)” value was 105.35 ± 3.83% and the “Freeze-thaw stability (% ± SD)” value was determined as 102.18 ± 6.01%.

Source of the values: PMC8912008, “Pharmacokinetic Study of Withanosides and Withanolides from Withania somnifera Using Ultra-High Performance Liquid Chromatography-Tandem Mass Spectrometry (UHPLC-MS/MS)” (Molecules, 2022).
